Measurements reported in publication PMC3639963, “A New Class of Small Molecule Inhibitor of BMP Signaling” (PLoS ONE, 2013).

Key:
Assay in all cases: Nanosyn kinase profiling
Format in all cases: biochemical
Settings in all cases: read-out: Percentage inhibition; for inhibition at 0.1 µM: 0.1 µM inhibitor; for inhibition at 1 µM: 1 µM inhibitor
HIPK1 = biological target: T1, HIPK1 (Homo sapiens, UniProt Q86Z02)
T1 construct: purchased Nanosyn (enzymatic panel); SGC in-house recombinant human kinases (DSF panel); Invitrogen (ALK1-6)
In short: (§1)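 Percent inhibition of each kinase was measured with the inhibitor at 0.1 µM and at 1 µM, as part of a 200-kinase human selectivity panel.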

JAK1 = biological target: T2, JAK1 (Homo sapiens, UniProt P23458)
T2 construct: purchased Nanosyn (enzymatic panel); SGC in-house recombinant human kinases (DSF panel); Invitrogen (ALK1-6)
T2 sequence (P23458 whole entry): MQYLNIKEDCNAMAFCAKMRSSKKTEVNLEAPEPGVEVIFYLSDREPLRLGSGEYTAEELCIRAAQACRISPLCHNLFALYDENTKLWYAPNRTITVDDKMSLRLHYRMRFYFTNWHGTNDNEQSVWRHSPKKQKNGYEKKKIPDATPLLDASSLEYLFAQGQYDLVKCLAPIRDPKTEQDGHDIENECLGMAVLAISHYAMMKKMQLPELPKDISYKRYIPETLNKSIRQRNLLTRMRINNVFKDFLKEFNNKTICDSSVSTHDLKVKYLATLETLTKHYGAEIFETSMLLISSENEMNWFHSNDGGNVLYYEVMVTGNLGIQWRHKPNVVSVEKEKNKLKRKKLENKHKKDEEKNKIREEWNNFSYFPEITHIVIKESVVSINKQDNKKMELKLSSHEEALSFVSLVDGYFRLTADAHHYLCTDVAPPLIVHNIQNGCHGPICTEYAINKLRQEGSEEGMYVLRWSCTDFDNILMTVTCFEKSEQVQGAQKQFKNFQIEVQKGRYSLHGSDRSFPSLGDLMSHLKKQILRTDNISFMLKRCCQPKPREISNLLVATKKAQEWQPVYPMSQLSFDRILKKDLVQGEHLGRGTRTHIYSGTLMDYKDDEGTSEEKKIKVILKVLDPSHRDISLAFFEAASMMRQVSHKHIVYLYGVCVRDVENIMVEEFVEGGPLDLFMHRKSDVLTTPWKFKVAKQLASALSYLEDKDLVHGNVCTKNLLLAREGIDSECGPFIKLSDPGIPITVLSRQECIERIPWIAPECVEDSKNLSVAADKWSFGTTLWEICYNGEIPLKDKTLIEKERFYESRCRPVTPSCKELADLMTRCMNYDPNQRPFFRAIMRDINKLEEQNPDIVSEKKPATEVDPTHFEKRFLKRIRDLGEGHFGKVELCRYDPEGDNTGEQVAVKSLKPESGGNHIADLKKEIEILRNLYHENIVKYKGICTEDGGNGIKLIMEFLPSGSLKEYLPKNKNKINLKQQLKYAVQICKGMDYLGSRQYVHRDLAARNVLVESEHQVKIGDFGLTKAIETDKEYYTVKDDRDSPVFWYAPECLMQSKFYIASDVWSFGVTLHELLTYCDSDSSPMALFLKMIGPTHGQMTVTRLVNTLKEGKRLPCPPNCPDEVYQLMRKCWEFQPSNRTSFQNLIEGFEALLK
In short: as §1

LOK = biological target: T3, LOK (Homo sapiens, UniProt O94804)
T3 construct: purchased Nanosyn (enzymatic panel); SGC in-house recombinant human kinases (DSF panel); Invitrogen (ALK1-6)
T3 sequence (O94804 whole entry): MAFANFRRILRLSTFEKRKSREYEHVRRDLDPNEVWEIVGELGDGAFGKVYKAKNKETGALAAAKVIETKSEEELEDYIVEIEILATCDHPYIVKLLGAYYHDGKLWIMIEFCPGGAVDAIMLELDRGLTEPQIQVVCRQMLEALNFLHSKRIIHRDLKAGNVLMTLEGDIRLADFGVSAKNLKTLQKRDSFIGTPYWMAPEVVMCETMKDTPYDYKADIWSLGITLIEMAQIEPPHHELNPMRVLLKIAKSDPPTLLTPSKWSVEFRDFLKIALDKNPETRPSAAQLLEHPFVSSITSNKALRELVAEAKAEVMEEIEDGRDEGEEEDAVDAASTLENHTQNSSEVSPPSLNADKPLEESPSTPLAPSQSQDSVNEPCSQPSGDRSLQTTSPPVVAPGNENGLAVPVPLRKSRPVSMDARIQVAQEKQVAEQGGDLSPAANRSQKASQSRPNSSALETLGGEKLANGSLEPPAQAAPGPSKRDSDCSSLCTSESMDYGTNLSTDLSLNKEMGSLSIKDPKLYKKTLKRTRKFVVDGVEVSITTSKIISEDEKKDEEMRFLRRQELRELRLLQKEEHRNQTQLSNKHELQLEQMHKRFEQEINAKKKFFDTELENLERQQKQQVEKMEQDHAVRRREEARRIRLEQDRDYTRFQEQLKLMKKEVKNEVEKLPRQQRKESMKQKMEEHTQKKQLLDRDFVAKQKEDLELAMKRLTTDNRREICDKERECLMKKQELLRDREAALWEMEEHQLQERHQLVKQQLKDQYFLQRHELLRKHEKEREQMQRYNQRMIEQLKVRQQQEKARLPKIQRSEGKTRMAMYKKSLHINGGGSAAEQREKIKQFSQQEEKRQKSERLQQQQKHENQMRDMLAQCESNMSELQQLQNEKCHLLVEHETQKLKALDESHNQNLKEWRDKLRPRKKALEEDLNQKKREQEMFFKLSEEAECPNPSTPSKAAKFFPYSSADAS
In short: as §1

MAPKAPK2 = biological target: T4, MAPKAPK2 (Homo sapiens, UniProt P49137)
T4 construct: purchased Nanosyn (enzymatic panel); SGC in-house recombinant human kinases (DSF panel); Invitrogen (ALK1-6)
T4 sequence (P49137 whole entry): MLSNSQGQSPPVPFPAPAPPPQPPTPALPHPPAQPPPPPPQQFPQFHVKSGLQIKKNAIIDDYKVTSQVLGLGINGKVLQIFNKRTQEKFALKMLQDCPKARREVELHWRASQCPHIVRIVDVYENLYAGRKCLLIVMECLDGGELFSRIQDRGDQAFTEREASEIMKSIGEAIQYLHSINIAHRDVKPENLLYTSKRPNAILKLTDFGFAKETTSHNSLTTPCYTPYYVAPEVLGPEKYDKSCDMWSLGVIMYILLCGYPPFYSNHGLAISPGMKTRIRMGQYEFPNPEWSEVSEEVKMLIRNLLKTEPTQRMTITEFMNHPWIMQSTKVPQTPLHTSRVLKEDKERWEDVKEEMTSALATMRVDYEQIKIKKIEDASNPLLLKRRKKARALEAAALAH
In short: as §1

MER = biological target: T5, MER (Homo sapiens, UniProt Q12866)
T5 construct: purchased Nanosyn (enzymatic panel); SGC in-house recombinant human kinases (DSF panel); Invitrogen (ALK1-6)
T5 sequence (Q12866 21-999): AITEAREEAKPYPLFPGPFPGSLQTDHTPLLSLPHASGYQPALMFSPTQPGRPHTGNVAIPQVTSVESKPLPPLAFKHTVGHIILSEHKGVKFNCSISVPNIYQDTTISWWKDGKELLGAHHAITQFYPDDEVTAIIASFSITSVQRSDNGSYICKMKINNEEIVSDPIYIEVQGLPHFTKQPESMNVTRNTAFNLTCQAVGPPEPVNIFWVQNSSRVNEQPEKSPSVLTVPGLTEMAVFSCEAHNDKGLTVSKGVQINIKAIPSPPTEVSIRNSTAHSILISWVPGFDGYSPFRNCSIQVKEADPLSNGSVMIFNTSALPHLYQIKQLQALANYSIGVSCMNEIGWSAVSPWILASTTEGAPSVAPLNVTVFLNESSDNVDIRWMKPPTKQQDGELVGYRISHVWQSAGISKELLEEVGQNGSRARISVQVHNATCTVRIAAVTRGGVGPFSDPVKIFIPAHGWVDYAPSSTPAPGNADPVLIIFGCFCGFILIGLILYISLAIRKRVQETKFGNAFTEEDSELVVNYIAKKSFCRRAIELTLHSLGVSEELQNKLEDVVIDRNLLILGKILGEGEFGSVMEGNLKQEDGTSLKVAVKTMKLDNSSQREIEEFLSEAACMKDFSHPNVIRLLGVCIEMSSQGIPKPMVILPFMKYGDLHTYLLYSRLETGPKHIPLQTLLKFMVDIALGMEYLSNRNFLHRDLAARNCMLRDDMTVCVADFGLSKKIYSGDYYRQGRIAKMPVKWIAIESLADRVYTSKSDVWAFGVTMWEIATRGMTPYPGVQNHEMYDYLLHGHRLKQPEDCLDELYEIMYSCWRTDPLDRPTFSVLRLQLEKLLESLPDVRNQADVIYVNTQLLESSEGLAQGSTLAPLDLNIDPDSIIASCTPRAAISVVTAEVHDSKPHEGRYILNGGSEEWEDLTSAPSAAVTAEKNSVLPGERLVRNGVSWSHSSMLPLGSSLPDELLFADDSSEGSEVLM
In short: as §1

MRCKβ = biological target: T6, MRCKβ (Homo sapiens, UniProt Q9Y5S2)
T6 construct: purchased Nanosyn (enzymatic panel); SGC in-house recombinant human kinases (DSF panel); Invitrogen (ALK1-6)
T6 sequence (Q9Y5S2 whole entry): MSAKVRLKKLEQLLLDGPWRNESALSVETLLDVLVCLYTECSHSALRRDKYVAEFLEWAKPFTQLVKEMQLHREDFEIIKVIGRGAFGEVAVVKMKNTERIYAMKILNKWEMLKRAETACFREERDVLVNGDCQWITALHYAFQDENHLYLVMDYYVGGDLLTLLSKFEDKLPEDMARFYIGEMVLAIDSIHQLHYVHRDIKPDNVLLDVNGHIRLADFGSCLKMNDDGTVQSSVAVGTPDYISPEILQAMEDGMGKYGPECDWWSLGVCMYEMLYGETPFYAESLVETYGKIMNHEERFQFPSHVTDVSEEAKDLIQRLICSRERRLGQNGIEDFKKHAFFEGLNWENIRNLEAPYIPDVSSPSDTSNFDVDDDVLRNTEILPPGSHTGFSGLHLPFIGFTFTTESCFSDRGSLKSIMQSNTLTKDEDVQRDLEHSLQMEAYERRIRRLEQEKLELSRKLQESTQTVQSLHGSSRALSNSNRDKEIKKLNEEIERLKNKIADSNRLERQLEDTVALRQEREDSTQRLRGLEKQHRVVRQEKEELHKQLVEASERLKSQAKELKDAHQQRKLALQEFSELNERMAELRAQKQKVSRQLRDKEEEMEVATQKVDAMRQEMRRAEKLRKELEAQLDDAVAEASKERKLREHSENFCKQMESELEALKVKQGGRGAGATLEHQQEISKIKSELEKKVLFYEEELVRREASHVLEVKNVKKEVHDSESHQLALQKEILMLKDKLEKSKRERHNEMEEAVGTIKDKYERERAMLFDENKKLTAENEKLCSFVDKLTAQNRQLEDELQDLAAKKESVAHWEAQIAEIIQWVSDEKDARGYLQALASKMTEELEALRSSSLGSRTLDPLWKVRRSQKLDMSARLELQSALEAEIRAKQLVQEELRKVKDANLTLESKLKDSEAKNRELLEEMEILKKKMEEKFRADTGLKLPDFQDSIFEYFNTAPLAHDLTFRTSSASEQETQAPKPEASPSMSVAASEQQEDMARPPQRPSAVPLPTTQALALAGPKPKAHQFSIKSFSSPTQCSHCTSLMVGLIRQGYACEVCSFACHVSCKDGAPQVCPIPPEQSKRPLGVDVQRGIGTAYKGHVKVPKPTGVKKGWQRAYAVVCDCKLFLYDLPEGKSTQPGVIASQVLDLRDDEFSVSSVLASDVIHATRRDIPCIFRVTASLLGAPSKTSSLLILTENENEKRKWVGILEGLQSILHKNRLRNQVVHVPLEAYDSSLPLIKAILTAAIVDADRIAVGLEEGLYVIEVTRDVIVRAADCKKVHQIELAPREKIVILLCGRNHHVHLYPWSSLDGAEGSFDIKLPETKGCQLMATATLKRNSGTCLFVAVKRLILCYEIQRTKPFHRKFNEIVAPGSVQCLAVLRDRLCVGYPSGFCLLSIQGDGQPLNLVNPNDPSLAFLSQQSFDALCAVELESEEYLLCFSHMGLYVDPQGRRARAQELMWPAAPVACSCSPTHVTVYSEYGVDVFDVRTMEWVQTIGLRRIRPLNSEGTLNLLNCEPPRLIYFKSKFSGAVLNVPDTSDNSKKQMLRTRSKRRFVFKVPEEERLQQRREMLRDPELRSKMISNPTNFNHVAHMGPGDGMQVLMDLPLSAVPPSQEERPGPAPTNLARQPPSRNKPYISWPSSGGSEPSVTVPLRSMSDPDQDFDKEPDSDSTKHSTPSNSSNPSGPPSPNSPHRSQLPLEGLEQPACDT
In short: as §1

PKCι = biological target: T7, PKCι (Homo sapiens, UniProt P41743)
T7 construct: purchased Nanosyn (enzymatic panel); SGC in-house recombinant human kinases (DSF panel); Invitrogen (ALK1-6)
T7 sequence (P41743 1-596): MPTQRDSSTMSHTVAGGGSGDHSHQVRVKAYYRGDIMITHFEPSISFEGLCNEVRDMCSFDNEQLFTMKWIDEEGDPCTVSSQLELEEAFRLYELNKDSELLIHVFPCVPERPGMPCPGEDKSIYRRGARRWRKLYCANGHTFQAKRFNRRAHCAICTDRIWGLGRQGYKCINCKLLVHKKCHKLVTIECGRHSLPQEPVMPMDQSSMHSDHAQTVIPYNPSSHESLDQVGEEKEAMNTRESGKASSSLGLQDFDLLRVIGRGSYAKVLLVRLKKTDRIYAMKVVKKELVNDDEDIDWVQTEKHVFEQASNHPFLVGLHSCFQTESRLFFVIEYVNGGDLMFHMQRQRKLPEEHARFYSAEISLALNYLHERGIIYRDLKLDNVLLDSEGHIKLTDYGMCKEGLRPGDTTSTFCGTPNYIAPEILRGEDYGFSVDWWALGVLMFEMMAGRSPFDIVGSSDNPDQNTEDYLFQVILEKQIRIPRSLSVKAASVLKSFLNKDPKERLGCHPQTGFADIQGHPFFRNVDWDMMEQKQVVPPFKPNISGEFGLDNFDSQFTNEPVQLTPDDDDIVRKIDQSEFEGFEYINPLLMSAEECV
In short: as §1

SRC = biological target: T8, SRC (Homo sapiens, UniProt P12931)
T8 construct: purchased Nanosyn (enzymatic panel); SGC in-house recombinant human kinases (DSF panel); Invitrogen (ALK1-6)
T8 sequence (P12931 whole entry): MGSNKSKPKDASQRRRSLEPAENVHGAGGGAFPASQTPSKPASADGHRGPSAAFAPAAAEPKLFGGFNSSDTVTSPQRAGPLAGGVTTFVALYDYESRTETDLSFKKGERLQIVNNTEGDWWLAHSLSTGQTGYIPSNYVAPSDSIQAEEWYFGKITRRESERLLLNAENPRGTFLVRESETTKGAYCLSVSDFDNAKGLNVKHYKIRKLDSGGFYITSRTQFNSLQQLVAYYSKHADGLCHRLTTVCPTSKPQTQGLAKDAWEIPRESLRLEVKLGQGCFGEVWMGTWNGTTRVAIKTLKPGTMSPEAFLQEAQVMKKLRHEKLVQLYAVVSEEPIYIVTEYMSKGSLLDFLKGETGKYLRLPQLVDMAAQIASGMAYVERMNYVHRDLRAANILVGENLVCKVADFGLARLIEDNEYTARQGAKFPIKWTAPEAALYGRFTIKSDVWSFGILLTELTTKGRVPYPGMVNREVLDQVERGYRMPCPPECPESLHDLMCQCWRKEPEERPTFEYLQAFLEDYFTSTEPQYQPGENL
In short: as §1

cRAF = biological target: T9, cRAF (Homo sapiens, UniProt P04049)
T9 construct: purchased Nanosyn (enzymatic panel); SGC in-house recombinant human kinases (DSF panel); Invitrogen (ALK1-6)
In short: as §1

p38δ = biological target: T10, p38δ (Homo sapiens, UniProt O15264)
T10 construct: purchased Nanosyn (enzymatic panel); SGC in-house recombinant human kinases (DSF panel); Invitrogen (ALK1-6)
T10 sequence (O15264 1-365): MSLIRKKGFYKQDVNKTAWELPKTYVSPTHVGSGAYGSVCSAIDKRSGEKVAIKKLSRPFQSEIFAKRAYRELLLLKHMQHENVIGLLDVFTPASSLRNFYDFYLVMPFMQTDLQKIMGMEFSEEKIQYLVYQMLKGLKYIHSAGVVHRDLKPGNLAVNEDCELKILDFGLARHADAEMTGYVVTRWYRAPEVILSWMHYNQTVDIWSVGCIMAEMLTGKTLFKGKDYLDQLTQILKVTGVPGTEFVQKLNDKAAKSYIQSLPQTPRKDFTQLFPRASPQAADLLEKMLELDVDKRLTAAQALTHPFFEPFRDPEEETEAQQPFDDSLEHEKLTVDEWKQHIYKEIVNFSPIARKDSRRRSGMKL
In short: as §1

Row | Compound | inhibition at 0.1 µM (HIPK1) | inhibition at 1 µM (HIPK1) | inhibition at 0.1 µM (JAK1) | inhibition at 1 µM (JAK1) | inhibition at 0.1 µM (LOK) | inhibition at 1 µM (LOK) | inhibition at 0.1 µM (MAPKAPK2) | inhibition at 1 µM (MAPKAPK2) | inhibition at 0.1 µM (MER) | inhibition at 1 µM (MER) | inhibition at 0.1 µM (MRCKβ) | inhibition at 1 µM (MRCKβ) | inhibition at 0.1 µM (PKCι) | inhibition at 1 µM (PKCι) | inhibition at 0.1 µM (SRC) | inhibition at 1 µM (SRC) | inhibition at 0.1 µM (cRAF) | inhibition at 1 µM (cRAF) | inhibition at 0.1 µM (p38δ) | inhibition at 1 µM (p38δ)
1 | COc1cc(-c2cc(-c3cccc(O)c3)cnc2N)cc(OC)c1OC [K02288, 3-[6-amino-5-(3,4,5-trimethoxy-phenyl)-pyridin-3-yl]-phenol] | 1.7% | 3.1% | 0% | 0.4% | 3.5% | 25% | -2% | -1% | 5.1% | 40% | 0.6% | 2% | 0.3% | 1.6% | 5.1% | 40% | -5% | -8% | -3% | -3%
2 | c1ccc2c(-c3cnn4cc(-c5ccc(N6CCNCC6)cc5)cnc34)ccnc2c1 [LDN-193189] | 0.6% | 4.4% | 2.7% | 4.2% | 8.3% | 38% | 0.7% | 0% | 4.4% | 10% | 0% | 2.1% | 1.4% | 1.5% | 8% | 33% | 0.6% | 0.1% | 1.8% | 0.5%
